Assay: Inhibition of binding of [125I]-CCK-8 to the cholecystokinin type B receptor

| SMILES | IC50 [nM] |
| --- | --- |
| O=C(Nc1ccc(Cl)cc1)NC1N=C(c2ccccc2)c2ccccc2N(CC(=O)N2CCCC2)C1=O (centres undefined) | 1.6 |
| CN1C(=O)[C@H](NC(=O)c2ccc(C(F)(F)F)cc2)N=C(c2ccccc2)c2ccccc21 | 3300 |
| O=C(Nc1ccc(Cl)cc1)N[C@H]1N=C(c2ccccc2)c2ccccc2N(CC(=O)N2CCCC2)C1=O | 13 |
| CN1C(=O)[C@H](NC(=O)Nc2cccc(I)c2)N=C(c2ccccc2)c2ccccc21 | 6.9 |
| CN1C(=O)[C@@H](NC(=O)c2ccc(C(F)(F)F)cc2)N=C(c2ccccc2)c2ccccc21 | 4600 |
| COc1cccc(NC(=O)N[C@@H]2N=C(c3ccccc3)c3ccccc3N(C)C2=O)c1 | 2.2 |
| CN1C(=O)[C@H](NC(=O)Nc2cccc(N)c2)N=C(c2ccccc2)c2ccccc21 | 33 |
| CN1C(=O)[C@H](NC(=O)NCc2cccc(O)c2)N=C(c2ccccc2)c2ccccc21 | 19 |
| CC(=O)Oc1cccc(NC(=O)N[C@@H]2N=C(c3ccccc3)c3ccccc3N(C)C2=O)c1 | 500 |
| CN1C(=O)[C@H](NC(=O)Nc2cccc(O)c2)N=C(c2ccccc2)c2ccccc21 | 15 |
| C=Cc1cccc(NC(=O)N[C@@H]2N=C(c3ccccc3)c3ccccc3N(C)C2=O)c1 | 35 |
| CN1C(=O)[C@H](NC(=O)Nc2cccc(CN)c2)N=C(c2ccccc2)c2ccccc21 | 719 |
| CN1C(=O)[C@H](NC(=O)Nc2ccccc2Cl)N=C(c2ccccc2)c2ccccc21 | 61 |
| COc1cccc(NC(=O)N[C@H]2N=C(c3ccccc3)c3ccccc3N(C)C2=O)c1 | 300 |
| Cc1cccc(NC(=O)N[C@@H]2N=C(c3ccccc3)c3ccccc3NC2=O)c1 | 40 |
| CN1C(=O)[C@@H](NC(=O)Nc2ccccc2Cl)N=C(c2ccccc2)c2ccccc21 | 280 |
| CN1C(=O)[C@H](NC(=O)Nc2cccc(Br)c2)N=C(c2ccccc2)c2ccccc21 | 3.8 |
| CN1C(=O)[C@H](NC(=O)Nc2cccc(Cl)c2)N=C(c2ccccc2)c2ccccc21 | 7.5 |
| O=C(Nc1ccc(Cl)cc1)N[C@@H]1N=C(c2ccccc2)c2ccccc2N(CC(=O)N2CCCC2)C1=O | 1.4 |
| Cc1cccc(NC(=O)NC2N=C(c3ccccc3)c3ccccc3N(CC(=O)N3CC[N+](C)(C)CC3)C2=O)c1 (centres undefined) [1,1-Dimethyl-4-{2-[2-oxo-5-phenyl-3-(3-m-tolyl-ureido)-2,3-dihydro-benzo[e][1,4]diazepin-1-yl]-acetyl}-piperazin-1-ium; iodide] | 58 |

| SMILES | IC50 [nM] |
| --- | --- |
| C[C@H](NC(=O)NC1N=C(c2ccccc2)c2ccccc2N(C)C1=O)c1ccccc1 (some centres undefined) [1-(1-Methyl-2-oxo-5-phenyl-2,3-dihydro-1H-benzo[e][1,4]diazepin-3-yl)-3-(1-phenyl-ethyl)-urea] | 11000 |
| CN1C(=O)C(NC(=O)Nc2ccccc2[N+](=O)[O-])N=C(c2ccccc2)c2ccccc21 (centres undefined) [1-(1-Methyl-2-oxo-5-phenyl-2,3-dihydro-1H-benzo[e][1,4]diazepin-3-yl)-3-(2-nitro-phenyl)-urea] | 1200 |
| CN1C(=O)C(NC(=O)Nc2cccc([N+](=O)[O-])c2)N=C(c2ccccc2)c2ccccc21 (centres undefined) [1-(1-Methyl-2-oxo-5-phenyl-2,3-dihydro-1H-benzo[e][1,4]diazepin-3-yl)-3-(3-nitro-phenyl)-urea] | 11 |
| CN1C(=O)C(NC(=O)Nc2cccc(C(F)(F)F)c2)N=C(c2ccccc2)c2ccccc21 (centres undefined) [1-(1-Methyl-2-oxo-5-phenyl-2,3-dihydro-1H-benzo[e][1,4]diazepin-3-yl)-3-(3-trifluoromethyl-phenyl)-urea] | 3.8 |
| CN1C(=O)C(NC(=O)Nc2ccc([N+](=O)[O-])cc2)N=C(c2ccccc2)c2ccccc21 (centres undefined) [1-(1-Methyl-2-oxo-5-phenyl-2,3-dihydro-1H-benzo[e][1,4]diazepin-3-yl)-3-(4-nitro-phenyl)-urea] | 46 |
| CN1C(=O)C(NC(=O)Nc2ccc(C(F)(F)F)cc2)N=C(c2ccccc2)c2ccccc21 (centres undefined) [1-(1-Methyl-2-oxo-5-phenyl-2,3-dihydro-1H-benzo[e][1,4]diazepin-3-yl)-3-(4-trifluoromethyl-phenyl)-urea] | 5.7 |
| CN1C(=O)C(NC(=O)Nc2cccc3ccccc23)N=C(c2ccccc2)c2ccccc21 (centres undefined) [1-(1-Methyl-2-oxo-5-phenyl-2,3-dihydro-1H-benzo[e][1,4]diazepin-3-yl)-3-naphthalen-1-yl-urea] | 79 |
| CN1C(=O)C(NC(=O)Nc2ccccc2)N=C(c2ccccc2)c2ccccc21 (centres undefined) [1-(1-Methyl-2-oxo-5-phenyl-2,3-dihydro-1H-benzo[e][1,4]diazepin-3-yl)-3-phenyl-urea] | 32 |
| CN1C(=O)C(NC(=O)Nc2ccccn2)N=C(c2ccccc2)c2ccccc21 (centres undefined) [1-(1-Methyl-2-oxo-5-phenyl-2,3-dihydro-1H-benzo[e][1,4]diazepin-3-yl)-3-pyridin-2-yl-urea] | 337 |
| CN1C(=O)C(NC(=O)Nc2cccnc2)N=C(c2ccccc2)c2ccccc21 (centres undefined) [1-(1-Methyl-2-oxo-5-phenyl-2,3-dihydro-1H-benzo[e][1,4]diazepin-3-yl)-3-pyridin-3-yl-urea] | 310 |
| CN1C(=O)C(NC(=O)Nc2ccncc2)N=C(c2ccccc2)c2ccccc21 (centres undefined) [1-(1-Methyl-2-oxo-5-phenyl-2,3-dihydro-1H-benzo[e][1,4]diazepin-3-yl)-3-pyridin-4-yl-urea] | 1070 |
| CN1C(=O)C(NC(=O)Nc2ccc3ccccc3n2)N=C(c2ccccc2)c2ccccc21 (centres undefined) [1-(1-Methyl-2-oxo-5-phenyl-2,3-dihydro-1H-benzo[e][1,4]diazepin-3-yl)-3-quinolin-2-yl-urea] | 26 |
| CN1C(=O)C(NC(=O)Nc2ccc3ncccc3c2)N=C(c2ccccc2)c2ccccc21 (centres undefined) [1-(1-Methyl-2-oxo-5-phenyl-2,3-dihydro-1H-benzo[e][1,4]diazepin-3-yl)-3-quinolin-6-yl-urea] | 52 |
| Cc1cccc(NC(=O)NC2N=C(c3ccccc3)c3cnccc3N(C)C2=O)c1 (centres undefined) [1-(1-Methyl-2-oxo-5-phenyl-2,3-dihydro-1H-pyrido[4,3-e][1,4]diazepin-3-yl)-3-m-tolyl-urea] | 632 |
| Cc1cccc(NC(=O)NC2N=C(c3cccnc3)c3ccccc3N(C)C2=O)c1 (centres undefined) [1-(1-Methyl-2-oxo-5-pyridin-3-yl-2,3-dihydro-1H-benzo[e][1,4]diazepin-3-yl)-3-m-tolyl-urea] | 92 |
| Cc1cccc(NC(=O)NC2N=C(c3ccncc3)c3ccccc3N(C)C2=O)c1 (centres undefined) [1-(1-Methyl-2-oxo-5-pyridin-4-yl-2,3-dihydro-1H-benzo[e][1,4]diazepin-3-yl)-3-m-tolyl-urea] | 52 |
| CN1C(=O)C(NC(=O)Nc2ccc(Cl)cc2Cl)N=C(c2ccccc2)c2ccccc21 (centres undefined) [1-(2,4-Dichloro-phenyl)-3-(1-methyl-2-oxo-5-phenyl-2,3-dihydro-1H-benzo[e][1,4]diazepin-3-yl)-urea] | 220 |
| COc1ccccc1NC(=O)NC1N=C(c2ccccc2)c2ccccc2N(C)C1=O (centres undefined) [1-(2-Methoxy-phenyl)-3-(1-methyl-2-oxo-5-phenyl-2,3-dihydro-1H-benzo[e][1,4]diazepin-3-yl)-urea] | 1200 |
| COC(=O)[C@H]1CCCN1OC(=O)CN1C(=O)C(NC(=O)Nc2cccc(OC)c2)N=C(c2ccccc2)c2ccccc21 (some centres undefined) [1-(2-{3-[3-(3-Methoxy-phenyl)-ureido]-2-oxo-5-phenyl-2,3-dihydro-benzo[e][1,4]diazepin-1-yl}-acetoxy)-pyrrolidine-2-carboxylic acid methyl ester] | 9.7 |

Source: BindingDB's records for doi:10.1021/jm00078a018 (Merck Research Laboratories, 1994)
